Measurements published in patent US9770430B2, “Desferrioxamine-metal complexes for the treatment of immune-related disorders” (priority 2009, dated 2017).
“And” between values parts separate entries of the source, which are not always exact repeats. Equal entries are not always repeated.

Tests used:
[1] = test system: high energy diet-induced Type II diabetes; assay: Sand rat high energy diet Type II diabetes model, glucose tolerance test and cataract formation (Example 6); assay type: in vivo, sand rat (Psammomis obesus); settings: for three hours response to an orally-administered glucose dose, value above the zero (standard diet Group I): 200 mg glucose per 100 g body weight, end of 53 day experiment, high energy diet; for Cataract formation: high energy diet (HE) sand rats, 53 days
Text: (§1) Sand rats (Psammomis Obesus) were used as a model for Type 2 diabetes. The sand rats transferred onto high energy diet develop a severe form of Type 2 diabetes, including high blood glucose level, increase in body weight, and cataract development (eye lens opacification).
(§2) The sand rats were divided into groups. The animals from the Group I received the standard diet, serving as a control, whereas animals from the other indicated groups received high energy diet, leading to diabetes development. The high-energy diet ed mice were either untreated, or treated with intra-peritoneal injections of 2.5 mg/kg body weight Ga-DFO, Zn-DFO, DFO alone, Zn, Ga or lipoic acid (LA), either twice or three times per week, as indicated, for the duration of the experiment. The blood glucose and body weight of the animals were monitored throughout the experiment.
Forty two sand rats were divided into seven groups, six animals in each. The animals from Group I received the standard diet and used as a control. The animals from the Groups II, III, IV, V, VI and VII received high energy diet, leading to diabetes development, while Groups III, IV and VII were treated with Zn-DFO, Ga-DFO and DFO alone, respectively. The Groups V and VI received Zn and Ga, in their chloride salt form, alone respectively. Administration of the different treatments was as described, and the experiment lasted for 53 days. Glucose tolerance test was performed at the end of experiment. The cataract formation was tested as well.

ovalbumin-induced asthma [2] = assay: Ovalbumin-induced asthma, treatment of chronic asthma model (BAL cells, lung histology); assay type: in vivo, BALB/c mice; settings: Mean ± SE
Protocol: • Twelve-week-old Balb/c mice were administered 10 μg (100 μl) ovalbumin (OVA) dissolved with 3 mg Al(OH)3 in 0.9% saline intraperitoneally (i.p.) on days 0, 7 and 14, and 10 μg (50 μl) OVA intranasally (i.n.) on days 20, 23, 25, 27, 29, 31, 34, 36, 37, 41, 43 and 45. For intranasal administration, mice were anesthetized with inhaled N-flurane and instilled with OVA i.n. with a micropipette. • Three-week-old BALB/c mice were sensitized (×3) with intra-peritoneal (i/p) injection (100 μl OVA solution, containing 0.3 mg OVA and 6.7 mg Al(OH)3, in 1 ml PBS) on days 0, 7 and 14. On days 14, 15, 17, 21 and 23 the mice were further sensitized with intranasal sprinklings (50 μl, each) of OVA in PBS solution containing 2 mg/ml OVA, as following: mice were anesthetized with inhaled N-flurane and instilled with OVA intra-nasally using a micropipette. Twenty-four hours after the last administration of OVA, the mice were sacrificed. Methacholine Challenge and Collection of Histologic Sections and Biochemical Samples
Either Zn-DFO, Ga-DFO, Zn-DFO and Ga-DFO 1:1 combination (herein metal complexes) or saline were administered as follows: on days −5, −1, 7 and 14, 1 mg/kg body weight metal complexes or saline were administered intraperitoneally (i.p.). On days 0, 6, 8, 13 and 15, 0.3 mg/kg body weight metal complexes or saline were administered i.p. On days 20, 23, 25, 27, 29, 31, 34, 36, 37, 41, 43 and 45, 0.3 mg/kg body weight metal complexes or saline were administered intranasally (i.n.). Twenty-four hours after the last sensitization, mice were anesthetized with urethane and the lungs were lavaged 4 times with 0.5 ml sterile PBS. Animals in the “control” group (non-asthmatic—saline treated, but not sensitized) (n=6) received saline injections and instillations, using the same regime as the asthmatic and treated animals. Animals of the “asthmatic” group (sensitized and saline-treated, rather than complex-treated) (n=6) received saline instead of the respective complex, under the same regime.
For the treatment of chronic asthma model, a similar experimental protocol was followed, with the following modifications: 1 mg/kg body weight metal complexes or saline were administered i.p. on day 0 (instead of days −5 and −1) and a further 0.3 mg/kg complexes or saline were administered on day 1. In this model, the effects of the complexes were investigated further by histological examination of lung sections stained with either haematoxylin-eosine or PAS/AB (periodic acid-Schiff/alcan blue).
(§3) To estimate the anti-asthmatic effect of the complexes the following parameters were measured: the concentration of ferritin in the lungs, the presence of inflammatory cells infiltration into the lungs, and the amounts of macrophages, eosinophils, lymphocytes and neutrophils in bronchoalveolar lavages (BALs).

ovalbumin-induced asthma [3] = assay: Ovalbumin-induced asthma, prophylactic treatment model (lung ferritin); assay type: in vivo, BALB/c mice; settings: asthmatic mice, 1 and 0.3 mg/kg i.p., then 0.3 mg/kg i.n.
Protocol: Ferritin concentration was quantified using an indirect ‘sandwich’ ELISA assay in accordance with a procedure developed previously in our laboratory. Briefly, ELISA 96-well micro plates were pre-coated with goat anti-human L-ferritin antibody. Rabbit anti-human H-ferritin was used as the secondary antibody. Plates were treated with goat anti-rabbit IgG conjugated with β-galactosidase. Chlorophenol Red-β-D-Galactopyranoside was then added and the plates analyzed using a microplate reader with a test (570 nm) and reference (630 nm) filters.
• Twelve-week-old Balb/c mice were administered 10 μg (100 μl) ovalbumin (OVA) dissolved with 3 mg Al(OH)3 in 0.9% saline intraperitoneally (i.p.) on days 0, 7 and 14, and 10 μg (50 μl) OVA intranasally (i.n.) on days 20, 23, 25, 27, 29, 31, 34, 36, 37, 41, 43 and 45. […]
as §3

[4] = pH limit of the complex solution during preparation (loss of biological activities); assay type: physicochemical; settings: pH above 5.6; solution reacts with air-containing CO2
[5] = test system: high energy diet-induced Type II diabetes; assay: Sand rat high energy diet Type II diabetes model, blood glucose and body weight (Example 5); assay type: in vivo, sand rat (Psammomis obesus)
Text: as §1, §2
The sand rats were divided into four groups (6 animals in each). Animals from Group I received the standard diet, serving as a control. The animals from the Groups II, III and W received high energy diet, leading to diabetes development, while Groups III and IV were treated with Ga-DFO and lipoic acid (LA), respectively. The intra-peritoneal injections of 2.5 mg Ga-DFO or LA per kg body weight were performed twice a week, for 61 days. The blood glucose and body weight of the animals were monitored during all the experiment.

[6] = complex of desferrioxamine with the named metal ion; cited from earlier work
[7] = Day 0, 2.5 mg/kg i.p. twice a week, mean, SD in the line below
[8] = Day 7, 2.5 mg/kg i.p. twice a week
[9] = Day 21, 2.5 mg/kg i.p. twice a week
[10] = Day 21, 2.5 mg/kg i.p. twice a week, 2.5 mg/kg
[11] = Day 32, 2.5 mg/kg i.p. twice a week
[12] = Day 42, 2.5 mg/kg i.p. twice a week
[13] = Day 49, 2.5 mg/kg i.p. twice a week
[14] = Day 56, 2.5 mg/kg i.p. twice a week
[15] = Day 61, 2.5 mg/kg i.p. twice a week
[16] = Day 61, 2.5 mg/kg i.p. twice a week, 2.5 mg/kg

Structure (SMILES) | three hours response to an orally-administered glucose dose, value above the zero (standard diet Group I) [1] [mg/dL] | Cataract formation [1] [%] | Blood glucose level [5, 7] [mg/dL] | Body weight [5, 7] [g] | Blood glucose level [5, 8] [mg/dL] | Body weight [5, 8] [g] | Body weight [5, 9] [g] | Blood glucose level [5, 10] | Blood glucose level [5, 11] [mg/dL] | Body weight [5, 11] [g] | Blood glucose level [5, 12] [mg/dL] | Body weight [5, 12] [g] | Blood glucose level [5, 13] [mg/dL] | Body weight [5, 13] [g] | Blood glucose level [5, 14] [mg/dL] | Body weight [5, 14] [g] | Body weight [5, 15] [g] | Blood glucose level [5, 16] | relative stability constants for the complexes of desferrioxamine [6] | also measured
[Cl-].[Cl-].[Cl-].[Ga+3] [Ga, Gallium (III) chloride] | 25 | 36 |  |  |  |  |  |  |  |  |  |  |  |  |  |  |  |  |  | 
CC(=O)N([O-])CCCCCNC(=O)CCC(=O)N([O-])CCCCCNC(=O)CCC(=O)N([O-])CCCCCN.[Ga+3] [Ga-DFO, gallium-desferrioxamine] | 5 | 11 | 91.8 | 131.6 | 94.6 | 154.0 | 173.2 | 176 ± 46 mg/dL and 176.4 mg/dL | 81.2 | 180.4 | 89.0 | 192.4 | 122.0 | 204.0 | 129.2 | 212.4 | 214.4 | 98 ± 29 mg/dL and 97.8 mg/dL | 10^28 | Eosinophils in BAL fluid (ovalbumin-induced asthma [2]): 0.2 ± 0.02^# 10^4 cells/ml; Lymphocytes in BAL fluid (ovalbumin-induced asthma [2]): 0.3 ± 0.06^# 10^4 cells/ml; Macrophages in BAL fluid (ovalbumin-induced asthma [2]): 3.3 ± 0.2^# 10^4 cells/ml; Neutrophils in BAL fluid (ovalbumin-induced asthma [2]): 0.3 ± 0.07^# 10^4 cells/ml; Total WBC in BAL fluid (ovalbumin-induced asthma [2]): 4.5 ± 0.6^# 10^4 cells/ml; lung ferritin level (ovalbumin-induced asthma [3]): 0.5 ± 0.3 µg/mg; effect of higher pH on the Ga-DFO solution [4]: marked loss of the biological activities
CC(=O)N([O-])CCCCCNC(=O)CCC(=O)N([O-])CCCCCNC(=O)CCC(=O)N([O-])CCCCCN.[Fe+3] [Fe(III), reference compound] |  |  |  |  |  |  |  |  |  |  |  |  |  |  |  |  |  |  | 10^31 | 
CC(=O)N(O)CCCCCNC(=O)CCC(=O)N(O)CCCCCNC(=O)CCC(=O)N(O)CCCCCN [DFO, N′-{5-[acetyl(hydroxy)amino]pentyl}-N-[5-({4-[(5-aminopentyl)(hydroxy)amino]-4-oxobutanoyl}amino)pentyl]-N-hydroxy-succinamide] | 150 | 25 |  |  |  |  |  |  |  |  |  |  |  |  |  |  |  |  |  | 
[Cl-].[Cl-].[Zn+2] [Zn, Zinc chloride] | 38 | 22 |  |  |  |  |  |  |  |  |  |  |  |  |  |  |  |  |  | 
O=C(O)CCCCC1CCSS1 (stereo not shown) [LA, Lipoic acid, reference compound] |  |  | 92.8 | 113.4 | 97.4 | 137.0 | 160.4 | 259 ± 49 mg/dL and 259.4 mg/dL | 176.4 | 170.2 | 196.4 | 189.2 | 185.2 | 201.4 | 220.6 | 211.8 | 218.0 | 168 ± 33 mg/dL and 167.8 mg/dL |  | 
